Measurements as given in ChEMBL document CHEMBL1136459, “New antibacterial tetrahydro-4(2H)-thiopyran and thiomorpholine S-oxide and S,S-dioxide phenyloxazolidinones” (Bioorg Med Chem Lett, 2003).
In brackets after ≈: the same amount, converted by molar mass.

Key:
Staphylococcus aureus [1] = test: In vitro antibacterial activity against Staphylococcus aureus strains UC12673, UC9213, ATCC 29213, and UC9271 (SA); range is 4-16; type: functional
[2] = tested on: Staphylococcus epidermidis; test: In vitro antibacterial activity against Staphylococcus epidermidis strains UC12084, 30031, and CDC-CNS90 (SE); range is 2-4; type: functional
Enterococcus faecium = test: In vitro antibacterial activity against vancomycin-resistant Enterococcus faecium UC12712 (VRE).
Moraxella catarrhalis [3] = test: In vitro antibacterial activity against Moraxella catarrhalis strains 30607 and 30603 (MC); range is 16-32; type: functional
Staphylococcus aureus [4] = test: In vitro antibacterial activity against linezolid-resistant Staphylococcus aureus ATCC 29213 (LRSA).; type: functional
Haemophilus influenzae [5] = test: In vitro antibacterial activity against Haemophilia influenzae strains 30063 and ATCC 31517 (HI); range is 16-64; type: functional
Haemophilus influenzae [6] = test: In vitro antibacterial activity against Haemophilia influenzae strains 30063 and ATCC 31517 (HI); range is 4-8; type: functional
[7] = tested on: Staphylococcus epidermidis; test: In vitro antibacterial activity against Staphylococcus epidermidis strains UC12084, 30031, and CDC-CNS90 (SE); type: functional
Streptococcus pneumoniae [8] = test: In vitro antibacterial activity against Streptococcus pneumoniae strains ATCC6305 and 31573 (SPN).
Staphylococcus aureus [9] = test: In vitro antibacterial activity against Staphylococcus aureus strains UC12673, UC9213, ATCC 29213, and UC9271 (SA); range is 2-4; type: functional
Moraxella catarrhalis [10] = test: In vitro antibacterial activity against Moraxella catarrhalis strains 30607 and 30603 (MC); range is 2-4; type: functional
Haemophilus influenzae [11] = test: In vitro antibacterial activity against Haemophilia influenzae strains ATCC 30063 and ATCC 31517; type: functional
Streptococcus pneumoniae [12] = test: In vitro antibacterial activity against Streptococcus pneumoniae strains ATCC 6305 and 31573 (SPN); range is 32-64; type: functional
Moraxella catarrhalis [13] = test: In vitro antibacterial activity against Moraxella catarrhalis strains 30607 and 30603 (MC).; type: functional
Staphylococcus aureus [14] = test: In vitro antibacterial activity against Staphylococcus aureus strains UC12673, UC9213, ATCC 29213, and UC9271 (SA); type: functional
Staphylococcus aureus [15] = test: In vitro antibacterial activity against Linezolid resistance Staphylococcus aureus ATCC 29213 (LRSA)
Haemophilus influenzae [16] = test: In vitro antibacterial activity against Haemophilia influenzae strains 30063 and ATCC 31517 (HI); range is 16-32; type: functional
[17] = tested on: Staphylococcus epidermidis; test: In vitro antibacterial activity against Staphylococcus epidermidis strains UC12084, 30031, and CDC-CNS90 (SE); range is 32->64; type: functional

SMILES | MIC (Staphylococcus aureus [1]) [µg/mL] | MIC (Enterococcus faecium) [µg/mL] | MIC (Staphylococcus aureus [4]) [µg/mL] | MIC [7] [µg/mL] | MIC (Streptococcus pneumoniae [8]) [µg/mL] | MIC (Haemophilus influenzae [11]) [µg/mL] | MIC (Moraxella catarrhalis [13]) [µg/mL] | MIC (Staphylococcus aureus [14]) [µg/mL] | other results
O=C(/C=C/c1cccnc1)NC[C@H]1CN(c2ccc(C3CCS(=O)(=O)CC3)c(F)c2)C(=O)O1 | 4 (≈ 8.45 µM) | 8 (≈ 16.9 µM) | 32 (≈ 67.6 µM) |  |  |  |  |  | MIC [2]: 2 µg/mL (≈ 4.22 µM); MIC (Moraxella catarrhalis [3]): 16 µg/mL (≈ 33.8 µM); MIC (Haemophilus influenzae [5]): 16 µg/mL (≈ 33.8 µM)
CC(=O)NC[C@H]1CN(c2ccc(C3CCS(=O)(=O)CC3)c(F)c2)C(=O)O1 |  | 2 (≈ 5.2 µM) | 32 (≈ 83.2 µM) | 0.5 (≈ 1.3 µM) | 0.5 (≈ 1.3 µM) |  |  |  | MIC (Haemophilus influenzae [6]): 4 µg/mL (≈ 10.4 µM); MIC (Staphylococcus aureus [9]): 2 µg/mL (≈ 5.2 µM); MIC (Moraxella catarrhalis [10]): 2 µg/mL (≈ 5.2 µM)
NCCC(O)C(=O)NC[C@H]1CN(c2ccc(C3CCS(=O)(=O)CC3)c(F)c2)C(=O)O1 (stereo partly specified) |  |  | > 64 | > 64 |  | > 64 | > 64 | > 64 | MIC (Streptococcus pneumoniae [12]): 32 µg/mL (≈ 72.2 µM)
O=C(NC[C@H]1CN(c2ccc(N3CCS(=O)(=O)CC3)c(F)c2)C(=O)O1)C1CC1 | 4 (≈ 9.72 µM) | 4 (≈ 9.72 µM) |  |  | 2 (≈ 4.86 µM) |  | 4 (≈ 9.72 µM) |  | MIC (Staphylococcus aureus [15]): 2 µg/mL (≈ 4.86 µM); MIC (Haemophilus influenzae [16]): 16 µg/mL (≈ 38.9 µM)
CC(C)CCC(=O)NC[C@H]1CN(c2ccc(N3CC[S+]([O-])CC3)c(F)c2)C(=O)O1 |  | > 64 | > 64 |  |  | > 64 | > 64 | ≥ 64 | MIC [17]: 32 µg/mL (≈ 75.2 µM)
